In patent US6432978B1, “SF2809-I,II,III,IV,V and VI substances exhibiting chymase-inhibiting activities” (Meiji Seika Kaisha, Ltd., priority 1998, dated 2002):

Key:
human chymase = biological target: T1, human chymase (Homo sapiens, UniProt P23946); test: Determination of chymase-inhibiting activity (Test Example 1); format: biochemical; conditions: activated human recombinant chymase; substrate succinyl-alanyl-histidyl-prolyl-phenylalanyl-para-nitroanilide; buffer pH 8.0; room temperature, 5 minutes; absorbance at 405 nm; read-out: 50% inhibitory concentrations (IC50) against the human chymase
T1 construct: made in house; host or cells: insect cells (Tn5) infected with recombinant baculovirus
T1 sequence (P23946 22-247): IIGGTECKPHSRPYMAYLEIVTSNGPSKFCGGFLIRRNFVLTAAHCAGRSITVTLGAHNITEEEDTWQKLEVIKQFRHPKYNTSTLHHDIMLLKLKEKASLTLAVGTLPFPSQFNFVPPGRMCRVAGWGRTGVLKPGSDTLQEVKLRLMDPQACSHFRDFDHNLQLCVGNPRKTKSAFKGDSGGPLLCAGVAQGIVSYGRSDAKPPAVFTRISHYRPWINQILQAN
Experimental: In this Example, the chymase-inhibiting activity of SF2809 substances was determined as described below.
A human recombinant chymase was prepared in accordance with the method of Urata et al's report (Urata et al., J. Biol. Chem., Vol. 266, p.17173, 1991). Thus, cultivation was made of insect cells (Tn5) which had been infected with recombinant baculovirus containing therein such cDNA that encodes the human chymase. The resulting culture of the insect cells was filtered and the resultant supernatant was treated with Heparin-sepharose (Pharmacia's product) to recover the chymase. The chymase so recovered was then purified. Then, the purified chymase was activated in accordance with the method of Murakami et al's report (Murakami et al, J. Biol. Chem., Vol. 270, p.2218, 1991), after which the activated chymase was purified with Heparin-sepharose to afford an activated type of human chymase.
To 50 μl of a buffer A (comprising 0.5˜3.0 M NaCl, 50 mM tris hydrochloric acid, pH 8.0) which contained 1˜5 ng of the active-type of human chymase as prepared in (1) above, there was added 2 μl of a solution in dimethylsulfoxide (DMSO) of an SF2809 substance as the test substance. Then, to the resulting mixture, there was added 50 μl of a buffer A which contained 0.5 mM of succinyl-alanyl-histidyl-prolyl-phenylalanyl-para-nitroanilide (Buckem's product) as a substrate. The resultant admixture was incubated at room temperature for 5 minutes. The change in the absorbance at 405 nm of the reaction solution was measured with passage of the incubation time, thereby to examine the chymase-inhibiting activity of the SF2809 substance under test.

[1] = Solubility (physicochemical properties); conditions: in methanol, ethyl acetate, dimethylsulfoxide, chloroform, hexane and water; result in words

SMILES	IC50 (human chymase) [nM]	Solubility [1]
Cn1c(=O)c(C(c2ccccc2)c2[nH]c3ccccc3c2CCO)c(O)c2ccccc21 (stereo not drawn) [SF2809-VI substance]	14	Soluble in methanol, ethyl acetate, dimethylsulfoxide and chloroform; and insoluble in hexane and water
CC(=O)NCCc1c(C(c2ccccc2)c2c(O)c3ccccc3n(C)c2=O)[nH]c2ccccc12 (stereo not drawn) [SF2809-V substance]	43	Soluble in methanol, ethyl acetate, dimethylsulfoxide and chloroform; and insoluble in hexane and water
CC(=O)NCCc1c(C(c2ccc(O)cc2)c2c(O)c3ccccc3n(C)c2=O)[nH]c2ccccc12 (stereo not drawn) [SF2809-II substance]	41	Soluble in methanol, ethyl acetate and dimethylsulfoxide; sparingly soluble in chloroform; and insoluble in hexane and water
Cn1c(=O)c(C(c2ccc(O)cc2)c2[nH]c3ccccc3c2CCO)c(O)c2ccccc21 (stereo not drawn) [SF2809-IV substance]	81	Soluble in methanol, ethyl acetate and dimethylsulfoxide; sparingly soluble in chloroform; and insoluble in hexane and water
CC(=O)NCCc1c(Cc2c(O)c3ccccc3n(C)c2=O)[nH]c2ccccc12 [SF2809-I substance]	7300	Soluble in methanol, ethyl acetate and dimethylsulfoxide; sparingly soluble in chloroform; and insoluble in hexane and water
Cn1c(=O)c(Cc2[nH]c3ccccc3c2CCO)c(O)c2ccccc21 [SF2809-III substance]	2100	Soluble in methanol, ethyl acetate and dimethylsulfoxide; sparingly soluble in chloroform; and insoluble in hexane and water
